Positions of bridges follow the written chain, without caps; N, C: chain ends. Non-standard residues stand in square brackets, D forms with d. Residues, ends and D or L forms follow the SMILES beside them. *: point of attachment. Malonyl(2,2-Me2,histaminyl) = CC(C)(C(=O)NCCc1cnc[nH]1)C(=O)*; Ala(1H-tetrazol-5-yl) = N[C@@H](Cc1nnn[nH]1)C(=O)O; αMePhe(2-F) = C[C@](N)(Cc1ccccc1F)C(=O)O; αMeL = CC(C)C[C@](C)(N)C(=O)O; Nle = CCCC[C@H](N)C(=O)O; Aib = CC(C)(N)C(=O)O
Assays:
[1] = Stability of peptides in Fasted-State Simulated Intestinal Fluid (FaSSIF); assay type: in vitro ADME; conditions: FaSSIF with 10 mg/ml pancreatin, 37° C.; for remaining at 0.5 h: t=30 mins, pH 6.5, 10 mg/ml pancreatin; for remaining at 0.25 h: FaSSIF pH 6.5 with 10 mg/ml pancreatin, t = 15 mins
human GLP2 receptor = biological target: T1, human GLP2 receptor (Homo sapiens, UniProt O95838); experiment: cAMP accumulation assay, functional agonism of human GLP2 receptor; assay type: cell-based; conditions: HEK cells infected with human GLP2 receptor BacMam virus, HTRF cAMP; for Emax: HEK293, read-out: Human GLP-2R agonist cAMP Emax; for EC50: read-out: Human GLP-2R agonist cAMP pEC50 (converted)
T1 construct: expressed in transfected cells; host or cells: HEK cells, BacMam virus transduction
T1 sequence (O95838 1-553): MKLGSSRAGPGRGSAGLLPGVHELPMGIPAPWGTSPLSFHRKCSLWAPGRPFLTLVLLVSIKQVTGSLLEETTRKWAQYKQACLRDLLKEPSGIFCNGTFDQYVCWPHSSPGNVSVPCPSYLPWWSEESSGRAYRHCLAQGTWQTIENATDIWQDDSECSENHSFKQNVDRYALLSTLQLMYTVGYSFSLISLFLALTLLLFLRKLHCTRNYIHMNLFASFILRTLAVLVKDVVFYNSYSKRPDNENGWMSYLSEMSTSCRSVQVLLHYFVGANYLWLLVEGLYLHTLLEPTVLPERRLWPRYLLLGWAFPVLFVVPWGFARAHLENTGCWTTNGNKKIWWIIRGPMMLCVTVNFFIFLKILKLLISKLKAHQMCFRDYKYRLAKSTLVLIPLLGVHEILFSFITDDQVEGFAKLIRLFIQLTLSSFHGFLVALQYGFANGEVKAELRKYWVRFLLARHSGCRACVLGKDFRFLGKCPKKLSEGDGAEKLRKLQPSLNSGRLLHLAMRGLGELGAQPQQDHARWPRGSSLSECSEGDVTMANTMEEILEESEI
How it was run: (§1)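 HTRF cAMP read-out: HEK cells expressing GLP1 or GLP2 receptor via 24 h BacMam infection, frozen before use; agonist exposure 45 min, 37° C, HBSS + 0.5 mM IBMX; stopped with detection reagents in lysis buffer.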

human GLP1 receptor = biological target: T2, human GLP1 receptor (Homo sapiens, UniProt P43220); experiment: cAMP accumulation assay, functional agonism of human GLP1 receptor; assay type: cell-based; conditions: HEK cells infected with human GLP1 receptor BacMam virus, HTRF cAMP; for Emax: HEK293, read-out: Human GLP-1R agonist cAMP Emax; for EC50: read-out: Human GLP-1R agonist cAMP pEC50 (converted)
T2 construct: expressed in transfected cells; host or cells: HEK cells, BacMam virus transduction
T2 sequence (P43220 24-463): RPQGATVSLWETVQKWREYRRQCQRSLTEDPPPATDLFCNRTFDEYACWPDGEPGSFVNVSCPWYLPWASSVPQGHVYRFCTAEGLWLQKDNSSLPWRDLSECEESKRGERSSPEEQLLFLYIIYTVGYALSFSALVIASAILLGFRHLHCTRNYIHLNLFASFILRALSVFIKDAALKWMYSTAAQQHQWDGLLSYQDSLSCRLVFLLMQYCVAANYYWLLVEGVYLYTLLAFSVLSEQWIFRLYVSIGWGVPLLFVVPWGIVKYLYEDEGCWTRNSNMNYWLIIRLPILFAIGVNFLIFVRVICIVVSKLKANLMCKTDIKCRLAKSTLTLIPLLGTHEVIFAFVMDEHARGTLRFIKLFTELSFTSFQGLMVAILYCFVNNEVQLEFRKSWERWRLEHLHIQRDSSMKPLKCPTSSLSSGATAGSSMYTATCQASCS
How it was run: as §1

remaining at 0.5 h [1]	Emax (human GLP2 receptor)	EC50 (human GLP2 receptor)	Emax (human GLP1 receptor)	EC50 (human GLP1 receptor)	remaining at 0.25 h [1]	Compound
68.7%	104%	0.0398 nM	96.3%	0.158 nM	–	CCCC[C@H](NC(=O)[C@H](CCC(=O)O)NC(=O)[C@@H]1CC(=O)NCCCC[C@H](NC(=O)[C@H](Cc2nn[nH]n2)NC(=O)C(C)(C)C(=O)NCCc2c[nH]cn2)C(=O)N[C@@H](CO)C(=O)N[C@@H](Cc2ccccc2)C(=O)N[C@@H](CO)C(=O)N1)C(=O)N[C@H](Cc1ccccc1)C(=O)N[C@H](C(=O)N[C@@](C)(CC(C)C)C(=O)N[C@@H](CC(C)C)C(=O)N[C@@H](CC(=O)O)C(=O)N[C@H]1CCC(=O)NCCCC[C@@H](C(=O)N[C@@H](CC(=O)O)C(=O)N[C@@H](Cc2ccccc2)C(=O)N[C@H](C(=O)N[C@H]2CCC(=O)NCCCC[C@@H](C(=O)N[C@H](C(=O)N[C@@H](CCCCN)C(N)=O)[C@@H](C)O)NC(=O)[C@H]([C@@H](C)CC)NC(=O)[C@H](CC(C)C)NC(=O)[C@H](Cc3c[nH]c4ccccc34)NC2=O)[C@@H](C)CC)NC(=O)[C@H](C)NC(=O)[C@H](C)NC(=O)[C@H](CCCCN)NC1=O)[C@@H](C)O [Example 17] ({Malonyl(2,2-Me2,histaminyl)}-[Ala(1H-tetrazol-5-yl)]KSFSDE[Nle][dF]T[αMeL]LDEKAAKDFIEWLIKTK-NH2; lactam 2-6, 14-18, 22-26; C-terminus assumed)
17.3%	104%	0.0158 nM	97.8%	0.1 nM	–	CCCC[C@@H]1NC(=O)[C@H](CCC(=O)O)NC(=O)[C@@H](NC(=O)[C@H](CO)NC(=O)[C@](C)(Cc2ccccc2F)NC(=O)[C@H](CO)NC(=O)CNC(=O)[C@H](CC(=O)O)NC(=O)C(C)(C)NC(=O)[C@@H](N)Cc2c[nH]cn2)CCCCNC(=O)C[C@@H](C(=O)N[C@H](C(=O)N[C@@H](CC(C)C)C(=O)N[C@@H](CC(=O)O)C(=O)N[C@H]2CCC(=O)NCCCC[C@@H](C(=O)N[C@@H](CC(=O)O)C(=O)N[C@@H](Cc3ccccc3)C(=O)N[C@H](C(=O)N[C@@H](CC(N)=O)C(=O)N[C@@H](Cc3c[nH]c4ccccc34)C(=O)N[C@@H](CC(C)C)C(=O)N[C@H](C(=O)N[C@@H](CCC(N)=O)C(=O)N[C@H]3CCC(=O)NCCCC[C@@H](C(N)=O)NC(=O)[C@H]([C@@H](C)O)NC(=O)[C@H]([C@@H](C)CC)NC(=O)[C@H](CCCCN)NC3=O)[C@@H](C)CC)[C@@H](C)CC)NC(=O)[C@H](C)NC(=O)[C@H](C)NC(=O)[C@H](CCCCN)NC2=O)[C@@H](C)CC)NC(=O)[C@@H](Cc2ccccc2)NC1=O [Example 18] (H-H[Aib]DGS[αMePhe(2-F)]SKE[Nle][dF]DILDEKAAKDFINWLIQEKITK-NH2; lactam 8-12, 16-20, 29-33; C-terminus assumed)
51.7%	104%	–	96.6%	–	–	CCCC[C@H](NC(=O)[C@H](CCC(=O)O)NC(=O)[C@@H]1CC(=O)NCCCC[C@H](NC(=O)[C@H](CC(=O)O)NC(=O)C(C)(C)NC(=O)[C@@H](N)Cc2c[nH]cn2)C(=O)N[C@@H](CO)C(=O)N[C@@H](Cc2ccccc2)C(=O)N[C@@H](CO)C(=O)N1)C(=O)N[C@H](Cc1ccccc1)C(=O)N[C@H](C(=O)N[C@@](C)(CC(C)C)C(=O)N[C@@H](CC(C)C)C(=O)N[C@@H](CC(=O)O)C(=O)N[C@H]1CCC(=O)NCCCC[C@@H](C(=O)N[C@@H](CC(=O)O)C(=O)N[C@@H](Cc2ccccc2)C(=O)N[C@H](C(=O)N[C@H]2CCC(=O)NCCCC[C@@H](C(=O)N[C@H](C(=O)N[C@@H](CCCCN)C(N)=O)[C@@H](C)O)NC(=O)[C@H]([C@@H](C)CC)NC(=O)[C@H](CC(C)C)NC(=O)[C@H](Cc3c[nH]c4ccccc34)NC2=O)[C@@H](C)CC)NC(=O)[C@H](C)NC(=O)[C@H](C)NC(=O)[C@H](CCCCN)NC1=O)[C@@H](C)O [Example 21] (H-H[Aib]DKSFSDE[Nle][dF]T[αMeL]LDEKAAKDFIEWLIKTK-NH2; lactam 4-8, 16-20, 24-28; N-terminus and C-terminus assumed)
–	103%	0.0251 nM	93.5%	25.1 nM	5.1%	CCCC[C@H](NC(=O)[C@H](CCC(=O)O)NC(=O)[C@H](CC(=O)O)NC(=O)[C@H](CO)NC(=O)[C@H](Cc1ccccc1)NC(=O)[C@H](CO)NC(=O)CNC(=O)[C@H](CC(=O)O)NC(=O)C(C)(C)NC(=O)[C@@H](N)Cc1c[nH]cn1)C(=O)N[C@H]1CC(=O)NCCCC[C@@H](C(=O)N[C@@H](CC(C)C)C(=O)N[C@@H](CCCCN)C(=O)N[C@@H](C)C(=O)N[C@@H](C)C(=O)N[C@@H](CCCCN)C(=O)N[C@@H](CC(=O)O)C(=O)N[C@@H](Cc2ccccc2)C(=O)N[C@H](C(=O)N[C@@H](CC(N)=O)C(=O)N[C@@H](Cc2c[nH]c3ccccc23)C(=O)N[C@@H](CC(C)C)C(=O)N[C@H](C(=O)N[C@@H](CCC(N)=O)C(=O)N[C@H](C(=O)N[C@@H](CCCCN)C(=O)N[C@H](C(=O)N[C@H](C(=O)N[C@@H](CC(=O)O)C(N)=O)[C@@H](C)O)[C@@H](C)CC)[C@@H](C)O)[C@@H](C)CC)[C@@H](C)CC)NC(=O)[C@H](CC(C)C)NC(=O)[C@H]([C@@H](C)CC)NC(=O)[C@H]([C@@H](C)O)NC1=O [Example 86] (H-H[Aib]DGSFSDE[Nle]DTILKLKAAKDFINWLIQTKITD-NH2; lactam 11-15; C-terminus assumed)
–	102%	0.0251 nM	100%	7.94 nM	22%	CCCC[C@H](NC(=O)[C@H](CCC(=O)O)NC(=O)[C@H](CC(=O)O)NC(=O)[C@H](CO)NC(=O)[C@H](Cc1ccccc1)NC(=O)[C@H](CO)NC(=O)CNC(=O)[C@H](CC(=O)O)NC(=O)C(C)(C)NC(=O)[C@@H](N)Cc1c[nH]cn1)C(=O)N[C@H](Cc1ccccc1)C(=O)N[C@H](C(=O)N[C@H](C(=O)N[C@@H](CC(C)C)C(=O)N[C@@H](CC(=O)O)C(=O)N[C@@H](CC(C)C)C(=O)N[C@@H](CCCCN)C(=O)N[C@@H](C)C(=O)N[C@@H](C)C(=O)N[C@@H](CCCCN)C(=O)N[C@@H](CC(=O)O)C(=O)N[C@@H](Cc1ccccc1)C(=O)N[C@H](C(=O)N[C@@H](CC(N)=O)C(=O)N[C@@H](Cc1c[nH]c2ccccc12)C(=O)N[C@@H](CC(C)C)C(=O)N[C@H](C(=O)N[C@@H](CCC(N)=O)C(=O)N[C@H](C(=O)N[C@H]1CCC(=O)NCCCC[C@@H](C(N)=O)NC(=O)[C@H]([C@@H](C)O)NC(=O)[C@H]([C@@H](C)CC)NC1=O)[C@@H](C)O)[C@@H](C)CC)[C@@H](C)CC)[C@@H](C)CC)[C@@H](C)O [Example 90] (H-H[Aib]DGSFSDE[Nle][dF]TILDLKAAKDFINWLIQTEITK-NH2; lactam 30-33 (inferred); C-terminus assumed)

Source: patent US20240270809A1, “ORAL GLP RECEPTOR AGONISTS” (priority 2020, published 2024)
